{
  "source": "patent US20230338347A1",
  "about": "“New Use of Inhibitors of the Notch Signalling Pathway” (Cellestia Biotech AG, priority 2020, published 2023)",
  "experiment": "Phase I/IIA first-in-human dose escalation: safety and tolerability (adverse events, DLT)",
  "settings": "in vivo",
  "text": "[…], open-label study investigating the safety, tolerability, pharmacokinetics (PK), pharmacodynamics (PD) and preliminary efficacy of the pan-NOTCH inhibitor 6-(4-Tert-Butylphenoxy)Pyridin-3-Amine in adult patients with locally advanced or metastatic solid tumours or hematologic malignancies.\n6-(4-Tert-Butylphenoxy)Pyridin-3-Amine is orally administered and is a small molecule targeting the NOTCH signalling pathway with binding to the NOTCH-specific transcription complex located at the nucleus of cells. The study is divided into two parts with Part A being the dose escalation part of the study to determine the maximum tolerated dose (MTD) or recommended Phase II dose (RP2D). In Part A at least 3, up to 6 patients per dose will participate in the sequentially enrolled dose cohorts. In an additional cohort of approximately 45-50 patients, the safety of the previously determined RP2D will be confirmed (dose confirmatory cohort).\nThe dosing will be 15, 30, 60, 120, 170, 250, 400, or 600 mg of the 6-(4-Tert-Butylphenoxy)Pyridin-3-Amine monohydrochloride salt or higher per day or alternatively 20, 40, 60, 120, 170, 250, 400, or 600 mg of the 6-(4-Tert-Butylphenoxy)Pyridin-3-Amine monohydrochloride salt or higher per day. Dosing of 15, 30, 60, 120, 170, 250, 400, or 600 mg of the 6-(4-Tert-Butylphenoxy)Pyridin-3-Amine monohydrochloride salt corresponds to dosing of 13, 26, 52, 104, 148, 217, 348, or 522 mg of 6-(4-Tert-Butylphenoxy)Pyridin-3-Amine (free base). Dosing of 20, 40, 60, 120, 170, 250, 400, or 600 mg of the 6-(4-Tert-Butylphenoxy)Pyridin-3-Amine monohydrochloride salt corresponds to dosing of 17, 35, 52, 104, 148, 217, 348, or 522 mg of 6-(4-Tert-Butylphenoxy)Pyridin-3-Amine (free base). For this study, 6-(4-Tert-Butylphenoxy)Pyridin-3-Amine monohydrochloride salt was formulated into a capsule having a drug load of 5, 10, 20, 50 and 100 mg, respectively intended to be administered orally. • Patients will meet the following criteria:\nThe primary outcome measures for this study are: • Part A (Escalation): Dose limiting toxicities (DLT) • Part B (Expansion): Best overall response according to the respective tumour assessment criteria for the different cancer indications.\nFourty-one patients (median age 55 years, range 25 to 76 years) have been treated with 6-(4-Tert-Butylphenoxy)Pyridin-3-Amine in the dose escalation part of the clinical study at oral doses of 15 mg-600 mg QD (once a day). […] Cumulatively, a total of 352 AEs has occurred in 41 patients since study initiation, of which 132 AEs […] in 31 patients were considered related to the study drug. The treatment-related treatment-emergent AEs (TEAEs) most commonly reported (≥10% of patients) were nausea (24%), diarrhea (20%), dyspepsia (15%), fatigue (12%), and vision blurred (12%).",
  "data": [
    {"smiles": "CC(C)(C)c1ccc(Oc2ccc(N)cn2)cc1", "note": "[6-(4-Tert-Butylphenoxy)Pyridin-3-Amine]", "values": [
      {"measurement": "AEs considered related to the study drug, share of all AEs", "setting": "human", "result": 37.2, "unit": "%"},
      {"measurement": "number of AEs considered related to the study drug", "setting": "human", "result": 132},
      {"measurement": "number of patients with AEs considered related to the study drug", "setting": "human", "result": 31},
      {"measurement": "number of serious adverse events (SAEs)", "setting": "human", "result": 12},
      {"measurement": "related AE of tachycardia", "setting": "human", "result": "one related AE of tachycardia Grade 1"},
      {"measurement": "serious adverse events, share of all AEs", "setting": "human", "result": 3.4, "unit": "%"},
      {"measurement": "total number of AEs", "setting": "human", "result": 352},
      {"measurement": "treatment-related TEAE diarrhea", "setting": "human", "result": 20, "unit": "%"},
      {"measurement": "treatment-related TEAE dyspepsia", "setting": "human", "result": 15, "unit": "%"},
      {"measurement": "treatment-related TEAE fatigue", "setting": "human", "result": 12, "unit": "%"},
      {"measurement": "treatment-related TEAE nausea", "setting": "human", "result": 24, "unit": "%"},
      {"measurement": "treatment-related TEAE vision blurred", "setting": "human", "result": 12, "unit": "%"},
      {"measurement": "QTc prolongation", "result": "no QTc prolongations"},
      {"measurement": "SAEs considered related to study drug", "result": "one SAE was considered related to study drug"},
      {"measurement": "cardiotoxicity signal", "result": "no signal of cardiotoxicity"},
      {"measurement": "deaths due to drug-related AEs", "result": "No deaths due to drug-related AEs"},
      {"measurement": "dose limiting toxicity (DLT)", "result": "one dose limiting toxicity"},
      {"measurement": "dose relation of AEs over the dose cohorts", "result": "no evidence of dose relation"},
      {"measurement": "skin phototoxicity or eye mydriasis events", "result": "No events of skin phototoxicity or eye mydriasis"}
    ]}
  ]
}
